Converted amounts (≈) assume the structure as drawn. Where two headings read alike, the source gives them in different places.
Experiments:
[1] = ABTS^•+ radical cation decolorization assay; conditions: concentration 0.1 mg/mL, mean ± SD
Procedure: (§1) To evaluate the antioxidant ability of the tested systems, antioxidant analysis was performed. Antioxidants can scavenge hydroxyl radicals in two ways: by reacting directly with hydroxyl radicals (DPPH^•, ABTS^•+) or indirectly inhibiting the formation of hydroxyl radicals by chelating metal ions involved in the production of hydroxyl radicals. The antioxidant activity of the systems studied was investigated by using DPPH^• scavenging, ABTS^•+ scavenging ability, and Fe^2+-chelating ability. In this study, the antioxidant activity of pure hesperetin and its Schiff bases (HHSB, HIN, and HTSC) and HP-β-CD complexes were compared, and the positive control was Trolox.
Antioxidant activity using ABTS^•+ cation radical scavenging was determined according to a modified method. ABTS solution (2.5 mM) was mixed with 1.0 mM potassium persulfate solution and left at room temperature in the dark for 12-24 h. After this time, the absorbance of the finished ABTS^•+ solution was corrected with ethanol to 0.70 ± 0.02 at 745 nm. A total of 100 µL of the sample was reacted for 5 min with 2 mL of ABTS^•+ solution (A745 nm = 0.70 ± 0.02). The absorbance value of the reaction mixture was measured at 745 nm. […] Scavenging activity (%) = [1 − (Asample − Ablank)/Acontrol] × 100%(4) where Acontrol is the absorbance value of the control (ABTS^•+ solution with water), Ablank is the absorbance value of samples mixed with anhydrous ethanol, and Asample is the absorbance value of the added test sample to ABTS^•+ solution at 745 nm, respectively.

[2] = FRAP assay (ferric-ion reducing antioxidant power); conditions: mean ± SD
Procedure: as §1
The antioxidant capacity determined by the FRAP assay (the ability of plasma to reduce iron) was carried out using a modification of the FRAP assay. The FRAP reagent consisted of the following solutions: 300 mM acetate, pH 3.6 glacial acetic acid buffer, 20 mM ferric chloride (FeCl3×6H2O), and 10 mM 2,4,6-tripyridyl-S-triazine (TPTZ) prepared in 40 mM HCl. The aforementioned solutions were mixed together in a ratio of 10:1:1 (v/v/v). The FRAP assay consisted of adding 15 µL of sample to 1.98 mL of reagent and incubating the mixture at 37 °C for 4 min. Absorbance measurement was recorded at 593 nm against a blank. Total antioxidant capacity was estimated relative to a standard of known FRAP concentration, ferrous sulfate.

[3] = Phase solubility studies with HP-β-CD; type: physicochemical; conditions: for solubility at 60 min: thermodynamic from solid
Procedure: The purpose of this part of the study was to determine the solubility of compounds of hesperetin and its Schiff bases (HHSB, HIN, and HTSC) in aqueous solution at different pHs and temperatures, and the effect of their inclusion in modified HP-β-CD on the aqueous solubility of these compounds at different pH values.
The effect of the presence of HP-β-CD at different temperatures (25, 37, and 60 °C) was determined by developing phase solubility diagrams.
In accordance with the methodology described in Section 3.4, excess amounts of each tested substance were added to aqueous solution with increasing concentration of HP-β-CD up to 16 mM, respectively, in 2 mL of 100 mM sodium acetate buffer (pH 3.6), 100 mM sodium phosphate buffer (pH 6.5) or 100 mM sodium borate buffer (pH 8.5).
Phase solubility studies were conducted according to [64] with some modifications. Excess amounts of each tested substance were added to aqueous solution with increasing concentration of HP-β-CD up to 16 mM, in 2 mL of 100 mM sodium acetate buffer (pH 3.6), 100 mM sodium phosphate buffer (pH 6.5), or 100 mM sodium borate buffer (pH 8.5), respectively. The samples were maintained in an ultrasonic bath at various temperatures (25, 37, and 60 °C) for 60 min to reach equilibrium. The aqueous solutions were then filtered through 0.45 µm acetate cellulose (CA) membrane filter and diluted. The tested compound concentration on each clear filtrate was spectrophotometrically determined by measuring at their wavelength maximum.
The complexation constant (Kc) between studied molecules and HP-β-CD was determined by using Equation (1):(1) Kc=slope/S0 (1−slope) where S0 means the water solubility of the studied substance, and “slope” means the slope of the phase solubility diagram.
Complexation efficiency was calculated from the slope of the phase solubility diagram using Equation (2):(2) CE=S0×Kc=slope/1−slope
The CE was also applied to evaluate the molar ratio in solution of tested systems using Equation (3):(3) Compound:HP−β−CD=1:(1+1/CE)

**Q.** With COc1ccc(C2CC(=O)c3c(O)cc(O)cc3O2)cc1O (stereo not drawn) [Hesperetin, 3′,5,7-Trihydroxy-4′-methoxyflavanone] as the molecule, how does the “ABTS^•+ antioxidant activity” value [1] read?
**A.** 77.42 ± 2.2%

**Q.** What about the FRAP antioxidant activity [2] of the same molecule?
**A.** 0.0005 ± 0.0005 mmolFe(II)/L

**Q.** And the CE complexation efficiency ([3]; 25 °C, pH 3.6, with HP-β-CD)?
**A.** 34.7%

**Q.** And the Kc complexation constant ([3]; 25 °C, pH 3.6, with HP-β-CD)?
**A.** 3221 ± 358 M⁻¹

**Q.** What about the “increase of solubility with HP-β-CD” value ([3]; 25 °C, pH 6.5, HP-β-CD at 16 mM) of the same molecule?
**A.** five-fold

**Q.** What about the CE complexation efficiency ([3]; 25 °C, pH 6.5, with HP-β-CD) of the same molecule?
**A.** 248%

**Q.** And the Kc complexation constant ([3]; 25 °C, pH 6.5, with HP-β-CD)?
**A.** 11933 ± 1949 M⁻¹

**Q.** And the CE complexation efficiency ([3]; 25 °C, pH 8.5, with HP-β-CD)?
**A.** 80.4%

**Q.** What about the Kc complexation constant ([3]; 25 °C, pH 8.5, with HP-β-CD) of the same molecule?
**A.** 2513 ± 143 M⁻¹

**Q.** What about the CE complexation efficiency ([3]; 37 °C, pH 3.6, with HP-β-CD) of the same molecule?
**A.** 44.4%

**Q.** What about the Kc complexation constant ([3]; 37 °C, pH 3.6, with HP-β-CD) of the same molecule?
**A.** 3171 ± 887 M⁻¹

**Q.** And the CE complexation efficiency ([3]; 37 °C, pH 6.5, with HP-β-CD)?
**A.** 25%

**Q.** What about the Kc complexation constant ([3]; 37 °C, pH 6.5, with HP-β-CD) of the same molecule?
**A.** 2280 ± 152 M⁻¹

**Q.** And the CE complexation efficiency ([3]; 37 °C, pH 8.5, with HP-β-CD)?
**A.** 19%

**Q.** And the Kc complexation constant ([3]; 37 °C, pH 8.5, with HP-β-CD)?
**A.** 1703 ± 163 M⁻¹

**Q.** What about the CE complexation efficiency ([3]; 60 °C, pH 3.6, with HP-β-CD) of the same molecule?
**A.** 34%

**Q.** What about the Kc complexation constant ([3]; 60 °C, pH 3.6, with HP-β-CD) of the same molecule?
**A.** 2566 ± 144 M⁻¹

**Q.** And the CE complexation efficiency ([3]; 60 °C, pH 6.5, with HP-β-CD)?
**A.** 11%

**Q.** What about the Kc complexation constant ([3]; 60 °C, pH 6.5, with HP-β-CD) of the same molecule?
**A.** 1179 ± 888 M⁻¹

**Q.** And the CE complexation efficiency ([3]; 60 °C, pH 8.5, with HP-β-CD)?
**A.** 37%

**Q.** And the Kc complexation constant ([3]; 60 °C, pH 8.5, with HP-β-CD)?
**A.** 2365 ± 221 M⁻¹

**Q.** What about the solubility at 60 min ([3]; aqueous buffer, 25 °C, pH 3.6 sodium acetate buffer, without cyclodextrin, read-out: solubility without HP-β-CD (value in brackets) (converted)) of the same molecule?
**A.** 50 µM (≈ 15.1 µg/mL)

**Q.** What about the solubility at 60 min ([3]; aqueous buffer, 25 °C, pH 6.5 sodium phosphate buffer, without cyclodextrin, read-out: solubility without HP-β-CD (value in brackets) (converted)) of the same molecule?
**A.** 49 µM (≈ 14.8 µg/mL)

**Q.** And the solubility at 60 min ([3]; aqueous buffer, 25 °C, pH 8.5 sodium borate buffer, without cyclodextrin, read-out: solubility without HP-β-CD (value in brackets) (converted))?
**A.** 280 µM (≈ 84.6 µg/mL)

**Q.** And the solubility at 60 min ([3]; aqueous buffer, 37 °C, pH 3.6 sodium acetate buffer, without cyclodextrin, read-out: solubility without HP-β-CD (value in brackets) (converted))?
**A.** 80 µM (≈ 24.2 µg/mL)

**Q.** And the solubility at 60 min ([3]; aqueous buffer, 37 °C, pH 6.5 sodium phosphate buffer, without cyclodextrin, read-out: solubility without HP-β-CD (value in brackets) (converted))?
**A.** 85 µM (≈ 25.7 µg/mL)

**Q.** What about the solubility at 60 min ([3]; aqueous buffer, 37 °C, pH 8.5 sodium borate buffer, without cyclodextrin, read-out: solubility without HP-β-CD (value in brackets) (converted)) of the same molecule?
**A.** 98 µM (≈ 29.6 µg/mL)

**Q.** And the solubility at 60 min ([3]; aqueous buffer, 60 °C, pH 3.6 sodium acetate buffer, without cyclodextrin, read-out: solubility without HP-β-CD (value in brackets) (converted))?
**A.** 95 µM (≈ 28.7 µg/mL)

**Q.** What about the solubility at 60 min ([3]; aqueous buffer, 60 °C, pH 6.5 sodium phosphate buffer, without cyclodextrin, read-out: solubility without HP-β-CD (value in brackets) (converted)) of the same molecule?
**A.** 82 µM (≈ 24.8 µg/mL)

**Q.** What about the solubility at 60 min ([3]; aqueous buffer, 60 °C, pH 8.5 sodium borate buffer, without cyclodextrin, read-out: solubility without HP-β-CD (value in brackets) (converted)) of the same molecule?
**A.** 120 µM (≈ 36.3 µg/mL)

**Q.** And the solubility at 60 min ([3]; 25 °C, pH 3.6 sodium acetate buffer, with HP-β-CD, read-out: S0 (solubility with HP-β-CD))?
**A.** 108 ± 4 µM (≈ 32.6 µg/mL)

**Q.** And the solubility at 60 min ([3]; 25 °C, pH 6.5 sodium phosphate buffer, with HP-β-CD, read-out: S0 (solubility with HP-β-CD))?
**A.** 208 ± 110 µM (≈ 62.9 µg/mL)

**Q.** And the solubility at 60 min ([3]; 25 °C, pH 8.5 sodium borate buffer, with HP-β-CD, read-out: S0 (solubility with HP-β-CD))?
**A.** 320 ± 32 µM (≈ 96.7 µg/mL)

**Q.** And the solubility at 60 min ([3]; 37 °C, pH 3.6 sodium acetate buffer, with HP-β-CD, read-out: S0 (solubility with HP-β-CD))?
**A.** 140 ± 40 µM (≈ 42.3 µg/mL)

**Q.** And the solubility at 60 min ([3]; 37 °C, pH 6.5 sodium phosphate buffer, with HP-β-CD, read-out: S0 (solubility with HP-β-CD))?
**A.** 110 ± 30 µM (≈ 33.3 µg/mL)

**Q.** What about the solubility at 60 min ([3]; 37 °C, pH 8.5 sodium borate buffer, with HP-β-CD, read-out: S0 (solubility with HP-β-CD)) of the same molecule?
**A.** 110 ± 10 µM (≈ 33.3 µg/mL)

**Q.** And the solubility at 60 min ([3]; 60 °C, pH 3.6 sodium acetate buffer, with HP-β-CD, read-out: S0 (solubility with HP-β-CD))?
**A.** 130 ± 20 µM (≈ 39.3 µg/mL)

**Q.** And the solubility at 60 min ([3]; 60 °C, pH 6.5 sodium phosphate buffer, with HP-β-CD, read-out: S0 (solubility with HP-β-CD))?
**A.** 96 ± 9 µM (≈ 29 µg/mL)

**Q.** And the solubility at 60 min ([3]; 60 °C, pH 8.5 sodium borate buffer, with HP-β-CD, read-out: S0 (solubility with HP-β-CD))?
**A.** 150 ± 27 µM (≈ 45.3 µg/mL)

From paper PMC10574185, “Encapsulation and Biological Activity of Hesperetin Derivatives with HP-β-CD” (Molecules, 2023)
